Experimental data: ChEMBL document CHEMBL5537185, “Discovery of the First-in-Class RORγ Covalent Inhibitors for Treatment of Castration-Resistant Prostate Cancer” (J Med Chem, 2024)
Active and inactive are the calls of the source. The calls are words filed in the database; no cut-off is given here.

Experiments:
[1] = molecular target: T1, Nuclear receptor ROR-gamma (Homo sapiens) (UniProt P51449); assay: Covalent binding affinity to RORgamma (unknown origin) expressed in Escherichia coli assessed as covalent adduct formation incubated for 4 hrs by mass spectrometric analysis
T1 sequence (whole entry): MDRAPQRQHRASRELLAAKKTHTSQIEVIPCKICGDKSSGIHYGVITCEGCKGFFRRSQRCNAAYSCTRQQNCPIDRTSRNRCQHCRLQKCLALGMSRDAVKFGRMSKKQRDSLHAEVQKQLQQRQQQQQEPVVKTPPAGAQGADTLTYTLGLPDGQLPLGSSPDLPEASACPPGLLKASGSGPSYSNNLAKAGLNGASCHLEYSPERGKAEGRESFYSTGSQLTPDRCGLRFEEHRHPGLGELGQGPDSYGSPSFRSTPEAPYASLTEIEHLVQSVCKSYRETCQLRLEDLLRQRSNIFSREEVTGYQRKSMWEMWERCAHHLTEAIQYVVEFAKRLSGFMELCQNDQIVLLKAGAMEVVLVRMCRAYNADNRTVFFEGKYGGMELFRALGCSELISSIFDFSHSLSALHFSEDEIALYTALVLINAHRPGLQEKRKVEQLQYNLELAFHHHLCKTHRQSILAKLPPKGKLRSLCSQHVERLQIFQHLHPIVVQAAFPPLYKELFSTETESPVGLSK

CWR22R [2] = assay: Downregulation of AR expression in human 22Rv1 cells incubated for 48 hrs by qRT-PCR analysis; type: functional, cell-based; conditions: dose 1.25-5 µM
CWR22R [3] = assay: Downregulation of KLK3 mRNA expression in human 22Rv1 cells at 1.25 to 5 uM incubated for 48 hrs by qRT-PCR analysis; type: functional, cell-based; conditions: dose 1.25-5 µM
LNCaP C4-2B [4] = assay: Downregulation of AR-V7 expression in human LNCaP C4-2B cells incubated for 24 to 72 hrs by Western blot analysis; type: functional, cell-based; conditions: dose 1.25-5 µM, time 24-72 hrs
CWR22R [5] = assay: Downregulation of AR expression in human 22Rv1 cells incubated for 24 to 72 hrs by Western blot analysis; type: functional, cell-based; conditions: dose 1.25-5 µM, time 24-72 hrs
CWR22R [6] = assay: Antiproliferative activity against human 22Rv1 cells incubated for 4 days by CCK8 assay; conditions: 22Rv1, 96 h
[7] = Oral bioavailability in ICR mouse at 10 mg/kg measured upto 24 hrs by LC-MS/MS analysis; type: ADME, organism-based; conditions: in vivo
[8] = Toxicity in NOD/SCID mouse assessed as change in body weight at 5 to 10 mg/kg, ip administered five times a week for 2 weeks and measured two times per week; type: organism-based; conditions: in vivo, 336 h, dose 5-10 mg/kg
CWR22R [9] = assay: Downregulation of AR expression in human 22Rv1 cells at 1.25 to 5 uM by Western blot analysis; type: functional, cell-based; conditions: dose 1.25-5 µM, time 24-72 hrs, TDE = time-dependent effect
LNCaP C4-2B [10] = assay: Induction of apoptosis in human LNCaP C4-2B cells assessed as increase in caspase-7 activity at 1.25 to 5 uM by Western blot analysis; type: functional, cell-based; conditions: dose 1.25-5 µM
CWR22R [11] = assay: Antitumor activity against human 22Rv1 cells xenografted in NOD/SCID mouse assessed as tumor growth inhibition at 10 mg/kg, ip administered five times a week for 2 weeks and measured two times per week; type: functional; conditions: 22Rv1, 336 h, read-out: TGI
LNCaP C4-2B [12] = assay: Downregulation of KLK3 mRNA expression in human LNCaP C4-2B cells at 1.25 to 5 uM incubated for 48 hrs by qRT-PCR analysis; type: functional, cell-based; conditions: dose 1.25-5 µM
LNCaP = assay: Antiproliferative activity against human LNCaP cells incubated for 4 days by CCK8 assay; conditions: 96 h
[13] = AUCinfinity in ICR mouse at 10 mg/kg, po measured upto 24 hrs by LC-MS/MS analysis; type: ADME, organism-based; conditions: in vivo
[14] = Toxicity in NOD/SCID mouse assessed as tolerability at 5 to 10 mg/kg, ip administered five times a week for 2 weeks and measured two times per week; type: organism-based; conditions: in vivo, 336 h, dose 5-10 mg/kg
[15] = AUClast in ICR mouse at 10 mg/kg, po measured upto 24 hrs by LC-MS/MS analysis; type: ADME, organism-based; conditions: in vivo
[16] = molecular target: T2, Nuclear receptor ROR-gamma (Homo sapiens, UniProt P51449); assay: Inhibition of Gal4-fused RORgamma LBD (unknown origin) expressed in HEK293T cells incubated for 48 hrs by luciferase based assay; type: cell-based
T2 sequence (P51449 whole entry): T1 sequence (whole entry)

CWR22R [17] = assay: Downregulation of KLK2 mRNA expression in human 22Rv1 cells at 1.25 to 5 uM incubated for 48 hrs by qRT-PCR analysis; type: functional, cell-based; conditions: dose 1.25-5 µM
LNCaP C4-2B [18] = assay: Downregulation of AR-V7 expression in human LNCaP C4-2B cells incubated for 48 hrs by qRT-PCR analysis; type: functional, cell-based; conditions: dose 1.25-5 µM
CWR22R [19] = assay: Inhibition of colony formation in human 22Rv1 cells compound addition at every 3 days and measured after 14 days by crystal violet staining based assay; type: functional, cell-based; conditions: dose 1.25-5 µM, time 14.0 day
[20] = Cmax in ICR mouse at 10 mg/kg, po measured upto 24 hrs by LC-MS/MS analysis; type: ADME, organism-based; conditions: in vivo
[21] = Half life in ICR mouse at 10 mg/kg, po measured upto 24 hrs by LC-MS/MS analysis; type: ADME, organism-based; conditions: in vivo
CWR22R [22] = assay: Induction of apoptosis in human 22Rv1 cells assessed as increase in caspase-3 activity at 1.25 to 5 uM by Western blot analysis; type: functional, cell-based; conditions: dose 1.25-5 µM
CWR22R [23] = assay: Antitumor activity against human 22Rv1 cells xenografted in NOD/SCID mouse assessed as tumor growth inhibition at 5 mg/kg, ip administered five times a week for 2 weeks and measured two times per week; type: functional; conditions: 22Rv1, 336 h, read-out: TGI
LNCaP C4-2B [24] = assay: Downregulation of KLK2 mRNA expression in human LNCaP C4-2B cells at 1.25 to 5 uM incubated for 48 hrs by qRT-PCR analysis; type: functional, cell-based; conditions: dose 1.25-5 µM
[25] = Volume of distribution at steady state in ICR mouse at 3 mg/kg, iv measured upto 24 hrs by LC-MS/MS analysis; type: ADME, organism-based; conditions: in vivo, read-out: Vdss
CWR22R [26] = assay: Downregulation of AR-V7 expression in human 22Rv1 cells incubated for 48 hrs by qRT-PCR analysis; type: functional, cell-based; conditions: dose 1.25-5 µM
[27] = Clearance in ICR mouse at 3 mg/kg, iv measured upto 24 hrs by LC-MS/MS analysis; type: ADME, organism-based; conditions: in vivo
LNCaP C4-2B [28] = assay: Inhibition of colony formation in human LNCaP C4-2B cells compound addition at every 3 days and measured after 14 days by crystal violet staining based assay; type: functional, cell-based; conditions: dose 1.25-5 µM, time 14.0 day
LNCaP C4-2B [29] = assay: Downregulation of NKX3-1 mRNA expression in human LNCaP C4-2B cells at 1.25 to 5 uM incubated for 48 hrs by qRT-PCR analysis; type: functional, cell-based; conditions: dose 1.25-5 µM
CWR22R [30] = assay: Induction of apoptosis in human 22Rv1 cells assessed as increase in caspase-7 activity at 1.25 to 5 uM by Western blot analysis; type: functional, cell-based; conditions: dose 1.25-5 µM
LNCaP C4-2B [31] = assay: Downregulation of AR expression in human LNCaP C4-2B cells incubated for 24 to 72 hrs by Western blot analysis; type: functional, cell-based; conditions: dose 1.25-5 µM, time 24-72 hrs
LNCaP C4-2B [32] = assay: Downregulation of AR-V7 expression in human LNCaP C4-2B cells at 1.25 to 5 uM by Western blot analysis; type: functional, cell-based; conditions: dose 1.25-5 µM, TDE = time-dependent effect
LNCaP C4-2B [33] = assay: Antiproliferative activity against human LNCaP C4-2B cells incubated for 4 days by CCK8 assay; conditions: 96 h

SMILES: C=CC(=O)Nc1ccccc1-c1ccc(NC(=O)Cc2ccc(S(=O)(=O)CC)cc2)cc1Cl
- Activity [1]: Active
- Activity (CWR22R [2]): Dose-Dependent Effect
- Activity (CWR22R [3]): Active
- Activity (LNCaP C4-2B [4]): Dose-Dependent Effect
- Activity (CWR22R [5]): Dose-Dependent Effect
- IC50 (CWR22R [6]): 770 nM
- bioavailability [7]: 12.7%
- Activity [8]: Non-Toxic
- Activity (CWR22R [9]): Tde
- Activity (LNCaP C4-2B [10]): Active
- inhibition in vivo at 10 mg/kg (CWR22R [11]): 62.6%
- Activity (LNCaP C4-2B [12]): Active
- IC50 (LNCaP): 630 nM
- AUC(0-inf) [13]: 251 ng·h/mL
- Activity [14]: Non-Toxic
- AUC(0-t) at 24 h [15]: 248 ng·h/mL
- IC50 [16]: 210 nM
- Activity (CWR22R [17]): Active
- Activity (LNCaP C4-2B [18]): Dose-Dependent Effect
- inhibition (CWR22R [19]): Dose-Dependent Effect
- Cmax [20]: 270 ng/mL
- half-life [21]: 36.6 min
- Activity (CWR22R [22]): Active
- inhibition in vivo at 5 mg/kg (CWR22R [23]): 41.9%
- Activity (LNCaP C4-2B [24]): Active
- Vd [25]: 0.75 L/kg
- Activity (CWR22R [26]): Dose-Dependent Effect
- clearance [27]: 86.8 mL/min/kg
- inhibition (LNCaP C4-2B [28]): Dose-Dependent Effect
- Activity (LNCaP C4-2B [29]): Active
- Activity (CWR22R [30]): Active
- Activity (LNCaP C4-2B [31]): Dose-Dependent Effect
- Activity (LNCaP C4-2B [32]): Tde
- IC50 (LNCaP C4-2B [33]): 470 nM
